Measurements reported in patent EP0032708A1, “Tryptophan derivative, process for preparing same and a pharmaceutical composition containing such derivative” (Tanabe Seiyaku Co., Ltd., priority 1980, dated 1981).

Key:
rat brain homogenate = assay: Preventive effect on lipid peroxide formation (thiobarbituric acid colorimetric method); type: biochemical; details: 10 % rat brain homogenate, pH 7.4, 30-minute incubation at 37°C
Procedure: (ii) Preventive effect on lipid peroxide formation: An ethanol solution containing 10^-3 or 10-^4 M of a test compound was added to a mixture of 2.4 ml of 0.067 M potassium phosphate buffer solution (pH 7.4) and 0.5 ml of 10 % rat brain homogenate to adjust the final volume of the mixture to 3 ml. After 30-minute incubation of the mixture at 37°C, one ml of 20 % trichloroacetic acid was added thereto, and lipid peroxide formation was determined by the thiobarbituric acid colorimetric method (J. Robak et al., Viochem. Pharmacol., Vol. 25, page 2233 (1976). Suppression (%) of lipid peroxide formation of the test compound was calculated according to the following formula: [formula] • Note: ^* : group containing the test compound ^** : group containing an equal volume of ethanol instead of the test compound solution ΔOD was calculated as [(optical density measured at 532 nm) - (optical density measured at 600 nm)]

male SD rats = assay: Hypolipidemic activity (test compound in diet of rats for one week; serum lipids and liver weight); type: in vivo; details: test compound 0.10 w/w % in diet for one week
Procedure: (i) Hypolipidemic activity:
A test compound (0.10 w/w %) was added to a commercial diet, and male SD rats (body weight: 120 - 140 g , a group of 6 rats) were maintained on the diet for one week. After the experimental period, blood was collected from the tail vein of the rats under ether anesthesia. Thereafter, the liver was excised and weighed. Serum cholesterol and serum triglyceride were measured according to the methods of Zak (Amer. J. Clin. Pathol., Vol. 24, page 1307 (1954)) and Van Handel Zilversmit (J. Lab. & Clin. Med., Vol. 50, page 152 (1957)), respectively. Then, the increase (%) in liver weight and the decrease (%) in serum cholesterol or triglyceride were calculated according to the following formulae: [formula] [formula]

Structure (SMILES) | Suppression (%) in lipid peroxide formation (rat brain homogenate; Dose 10^-3M, 1000 µM) | Suppression (%) in lipid peroxide formation (rat brain homogenate; Dose 10^-4M, 100 µM) | Decrease (%) in serum triglyceride (male SD rats) | Decrease (%) in serume cholesterol (male SD rats) | Increase (%) in liver weight (male SD rats)
CCOC(=O)C(C)(C)Oc1ccc(Cl)cc1 [Clofibrate, 2-(4-chlorophenoxy)-2-methylpropanoic acid ethyl ester, reference compound] | 24.3% | 0.5% | 34% | 26% | 14%
Cn1cc(C[C@H](NC(=O)SCc2ccccc2)C(=O)O)c2ccccc21 [N^1-methyl-Hα-benzylthiocarbonyl-L-tryptophan] | 65.2% | 9.0% | 30% | 15% | 5%
Cc1ccc(CSC(=O)N[C@@H](Cc2c[nH]c3ccccc23)C(=O)O)cc1 [Nα-(4-methylbenzylthiocarbonyl)-L-tryptophan] | 72.7% | 10.2% | 48% | 14% | 0%
